Experimental data as given in article PMC4838890, “Dynamic and flexible H3K9me3 bridging via HP1β dimerization establishes a plastic state of condensed chromatin” (Nature Communications, 2016).

Tests used:
H3K9me0 oligonucleosomes = assay: Chromatin sedimentation (clustering), H3K9me0 oligonucleosomes; type: biochemical, Xenopus laevis; details: 150 mM NaCl, EtBr fluorescence, n=3
Method: Figure 3 hHP1β clusters oligonuclesomal arrays in dependence of H3K9me3. (a) Oligonucleosomes (2.5 nM) were incubated with increasing concentrations of hHP1β WT or I161A at 150 mM NaCl. DNA remaining in the supernatant after centrifugation was incubated with EtBr and measured by fluorescence reading. Data were normalized to amounts in absence of added protein. Averages of three independent experiments are plotted; error bars represent s.d.; n=3. (b) Analysis of the hydrodynamic radius of oligonucleosomes (10 nM; DNA labelled with ATTO 610) in the presence of increasing concentrations of hHP1β WT or I161A by FCS at 150 mM NaCl. For details on experimental setup see Supplementary Fig. 3. Error bars represent s.d.; n=3. (c) Oligonucleosomes were reconstituted after mixing H3K9me0 and H3K9me3 octamers at different ratio. Chromatin precipitation analysis at 150 mM NaCl was carried out with hHP1β WT at saturating concentration. Data are presented as in a. (d) Precipitation behaviour of oligonucleosomes (2.5 nM) was analysed at different concentrations of NaCl with hHP1β WT at saturating concentration. […] Precipitated material was analysed by western blotting. […] Complexes were fixed with 0.05% (v/v) glutaraldehyde, spotted on mica surfaces and analysed by scanning force microscopy. […] (h) Quantification of results representatively shown in g according to the classification on the top: A, extended; B, partially condensed; C, fully condensed; D; aggregates; n>50 for each condition.
For saturating conditions, 2.7 nM oligonucleosomes were incubated with 5 μM hHP1β proteins in 100 μl sedimentation buffer (10 mM triethanolamine (pH 7.5), 150 mM NaCl, 0.1 mM EDTA) for 1 h on ice. […] For quantification of chromatin DNA, the input and output samples were incubated with 40 μl 0.5 μg ml^−1 ethidium bromide and fluorescence was measured on a Plate CHAMELEON II fluorescence plate reader (Hidex, Turku, Finland) using a 360 nm (±5 nm) excitation filter and a 612 nm (±5 nm) emission filter. For each sample the ratio of DNA concentrations after and before centrifugation (output/input) was calculated. […]

H3K9me3 oligonucleosomes = assay: Fluorescence correlation spectroscopy (FCS), H3K9me3 oligonucleosomes; type: biochemical, Xenopus laevis; details: 150 mM NaCl
Method: All fluorescence measurements were performed with a pulsed custom-built mode-locked Ti:Sa-Laser and a confocal two-photon fluorescence microscope setup. Detailed description of the experimental setup and the measurement procedure are available on request. In all cases 10 nM of the acceptor labelled species, ATTO 610-labelled nucleosomal array, was incubated with 20–200 μM of recombinant hHP1β in 10 μl of 10 mM triethanolamine HCl (pH 7.5), 0.1 mM EDTA, 150 mM NaCl at 4°C. For each sample the fluorescence correlation curve, fluorescence intensity and anisotropy values were determined at 22°C. Every data point was averaged over a minimum of 15 single measurements of 10 s each. Excitation was by two-photon mode.
The fluorescence data were analysed using the correlation function [drawing 1] , and the equation for free diffusion of particles [drawing 2] , where I(t) is the fluorescence intensity measured at time t, N the particle number, τD the diffusion time, and r0=0.25 the axis ratio of the focal region, considering the dimensions of a Gaussian beam waist.
Supplementary Figure 3: Analysis of chromatin clustering m ediated by hHP1β.
(a) Schematic representation of a stepwise precipitation and resolubilization experiment.
(b) Results of stepwise precipitation and resolubilization after clustering H3K9me3-oligonucleosomes by hHP1β at different concentrations. DNA remaining in the supernatant after centrifugation was incubated with EtBr and measured by fluorescence reading. Data were normalized to amounts present in the input.
Results of a representative experiment are shown.
(c) Instrumental setup used for two -photon fluorescence correlation spectroscopy (FCS). The beam of a pulsed Ti:Sa-Laser is reflected into a water immersion objective (O) via a dichroic mirror (M). The fluorescence light transmitted through this dichroic mirror is split up by a second dichroic mirror. Blow- […]
F: filter, L: lens, M: dichroic mirror, O:objective, PD:
(d) Scheme of the strategy used for FCS measurements. DNA of oligonucleosomes was labeled at the 5’- […]

mouse fibroblasts = assay: Subnuclear distribution of EGFP fusion proteins; type: cell-based; details: GFP fusions transiently expressed, n >100
Description: Supplementary Figure 11: Subnuclear distribution of hHP1 β wild type and mutant proteins .
(a) The indicated proteins fused to EGFP were transiently expressed in mouse fibroblast cells.
Representative fluorescence confocal images are shown. DNA was stained with DAPI. Scale bar […]
(b) Quantification of the subnuclear distribution of the hHP1β WT and mutant proteins analyzed as in ( a) by visual inspection. EGFP signal in each transfected cell was categoriz ed into ‘dotted’ (see WT distribution in panel a) or ‘diffuse’ (see distribution of I161A in panel a). n >100 for each condition.
(1 picture or pasted object on this page, not shown here)

In the case of “hHP1β WT: recombinant human heterochromatin protein 1β (GenBank NM_001127228), 185 aa”, the “chromatin clustering/aggregation, H3K9me0” value (H3K9me0 oligonucleosomes) is reported as “efficiently aggregated H3K9me3 but not H3K9me0 oligonucleosomes”, the “chromatin clustering/aggregation, H3K9me0” value (H3K9me0 oligonucleosomes; listed as hHP1β) is reported as “No clustering of H3K9me0 chromatin” and the maximum hydrodynamic radius (H3K9me3 oligonucleosomes; 10 nM ATTO 610-labelled array, highest protein concentration) is reported as 450 nm. The EC50 (H3K9me3 oligonucleosomes; 23°C, read-out: half-maximal effect, FCS) was 3.5 µM and the subnuclear distribution (mouse fibroblasts) was “largely localized to characteristic areas of pericentromeric heterochromatin enriched in H3K9me3”.

In the case of “hHP1β I161A: CSD point mutant of hHP1β incapable of dimerization”, the “chromatin clustering/aggregation, H3K9me0” value (H3K9me0 oligonucleosomes) is reported as “neither the I161A mutant, nor the isolated CD or CSD had any effect on modified or unmodified chromatin”, the “complex formation by clustering (FCS)” value (H3K9me3 oligonucleosomes) is reported as “No such complex formation by clustering” and the subnuclear distribution (mouse fibroblasts) is reported as “diffuse distribution”.
